# Assay results: patent US20230138414A1, “METHODS AND COMPOSITIONS FOR PREVENTING AND TREATING MYOPIA” (The Trustees of Columbia University in the City of New York, priority 2020, published 2023)
# Where a name gives a salt, the structure may show the parent alone. Read-outs that look alike come from different tables or passages of the source.
# Tests used:
# myopia development [1] = conditions: chickens and guinea pigs; cited from earlier work
# mouse model of myopia = conditions: cited from earlier work
# [2] = test system: experimentally induced myopia; conditions: chickens; cited from earlier work
# myopia development [3] = conditions: chicken, mouse and non-human primates; cited from earlier work
# [4] = test system: mice with experimentally induced myopia; test: Lens-induced myopia (-25 D lens over right eye, 3 weeks), drug in diet; assay type: in vivo, C57BL/6J (B6) mice; conditions: for interocular difference in refractive error between lens-treated eyes and control eyes: after 3 weeks of lens treatment, control group -10.47 ± 3.02 D; for inhibition (suppression) of myopia: systemic oral administration, 3 weeks, -25 D lens, B6 mice
# Description: Myopia was induced in 24-days old C57BL/6J (B6) mice by attaching -25 diopter (D) lens placed in a plastic 3D-printed frame over right eye. The contralateral eye served as control. Mice were raised with lenses for 3 weeks (FIG. 1A). After 3 weeks, the lenses were removed and refractive errors in the lens-treated eyes and contralateral control eyes were compared. Lens-treatment produced myopia in the lens-treated eyes (average refractive error = -14.6 ± 0.3 D) relative to the control eyes (average refractive error = +0.6 ± 0.6 D) (FIG. 1B); the interocular difference in refractive error (-15.2 ± 0.7 D) was highly significant (P < 0.0001). […] The diameter of lens-treated eyes was on average 65 ± 8 µm larger (P < 0.0001; FIG. 1C), and the vitreous chamber depth in the lens-treated eyes was 61 ± 4 µm longer (P < 0.0001; FIG. 1C), than that of the control fellow eyes.
# The experimental group of B6 mice was raised with -25 D lenses over right eye (as described in Example 1) on a diet supplemented with 5 mg/kg of levocabastine hydrochloride for 3 weeks, while the control group of B6 mice with -25 D lenses over right eye was raised on a regular non-medicated diet. The interocular difference in refractive error between lens-treated eyes and control eyes in the levocabastine-treated animals after 3 weeks of lens treatment was +0.55 ± 2.32 D versus -10.47 ± 3.02 D in the control group, P-value = 2.83 × 10^-10.
# (§1) The experimental group of B6 mice was raised with -25 D lenses over right eye on a diet supplemented with 1 mg/kg of fenoterol hydrobromide for 3 weeks, while the control group of B6 mice with -25 D lenses over right eye was raised on a regular non-medicated diet. The interocular difference in refractive error between lens-treated eyes and control eyes in the fenoterol-treated animals after 3 weeks of lens treatment was -0.8 ± 1.80 D versus -10.47 ± 3.02 D in the control group, P = 2.47 × 10^-08.
# as §1, with “trichostatin A” for “fenoterol hydrobromide”, “trichostatin-A-treated” for “fenoterol-treated”, “0.48” for “-0.8”, “1.46” for “1.80”, “4.43” for “2.47”, “10^-10.” for “10^-08.”
# (§2) The experimental group of B6 mice was raised with -25 D lenses over right eye on a diet supplemented with 0.3 mg/kg of fingolimod phosphate for 3 weeks, while the control group of B6 mice with -25 D lenses over right eye was raised on a regular non-medicated diet. The interocular difference in refractive error between lens-treated eyes and control eyes in the fingolimod-treated animals after 3 weeks of lens treatment was -0.02 ± 1.58 D versus -10.47 ± 3.02 D in the control group, P = 4.63 × 10^-9.
# The experimental group of B6 mice was raised with -25 D lenses over right eye on a diet supplemented with 20 mg/kg of berberine chloride for 3 weeks, while the control group of B6 mice with -25 D lenses over right eye was raised on a regular non-medicated diet. The interocular difference in refractive error between lens-treated eyes and control eyes in the berberine-treated animals after 3 weeks of lens treatment was -5.15 ± 1.22 D versus -10.47 ± 3.02 D in the control group, P = 1.31 × 10^-4.
# as §2, with “10” for “0.3”, “S-methyl-L-thiocitrulline hydrochloride” for “fingolimod phosphate”, “S-methyl-L-thiocitrulline-treated” for “fingolimod-treated”, “-0.28” for “-0.02”, “2.17” for “1.58”, “6.73” for “4.63”
# [5] = test system: development of ocular components and emmetropization; conditions: juvenile primates; cited from earlier work
# progression of myopia [6] = conditions: cited from earlier work
# progression of myopia [7] = conditions: 1-year period, cited from earlier work
# [8] = test system: progression of myopia in children; conditions: cited from earlier work
# myopia [9] = conditions: 300 mg/kg dose, guinea pigs; cited from earlier work
# sclera = conditions: rabbit, in vivo; cited from earlier work
# myopia [10] = conditions: monkeys; effect strongly depended on the genetic background; cited from earlier work
# [11] = test system: progression of myopia in children; conditions: daily oral 400 mg (∼15 mg/kg), cited from earlier work
# induced myopia = conditions: 30 mg/kg dose, rabbits; cited from earlier work
# progression of myopia [12] = conditions: guinea pigs; cited from earlier work
# experimental myopia = conditions: tree shrews, rhesus monkeys, and chickens; cited from earlier work
# [13] = test system: progression of myopia in children; conditions: cited from earlier work; remark: listed apart in the source
# myopia [14] = conditions: guinea pigs; cited from earlier work
compound,measurement,setting,value
NCCCP(=O)(O)CC1CCCCC1 [CGP46381],suppression of myopia development,myopia development [1],suppress myopia development
CC(/C=C/C=C(\C)C(=O)O)=C\C=C\C=C(C)\C=C\C=C(/C)C(=O)O [crocetin],outcome of drug screen,mouse model of myopia,potential anti-myopia agent
N=C(N)NC(=O)Cc1c(Cl)cccc1Cl [guanfacine],inhibition of experimentally induced myopia,[2],inhibit experimentally induced myopia
CN1CCc2cccc3c2[C@H]1Cc1ccc(O)c(O)c1-3 [apomorphine],inhibition of myopia development,myopia development [3],inhibit myopia development
"CCCCCCCCc1ccc(CCC(N)(CO)COP(=O)(O)O)cc1 (stereo not shown) [fingolimod phosphate, fingolimod (FTY720) phosphate]",interocular difference in refractive error between lens-treated eyes and control eyes,[4]; diet supplemented with 0.3 mg/kg,-0.02 ± 1.58 D
CC(=C\[C@@H](C)C(=O)c1ccc(N(C)C)cc1)/C=C(\C)C(=O)NO [trichostatin A],interocular difference in refractive error between lens-treated eyes and control eyes,[4]; diet supplemented with 1 mg/kg,0.48 ± 1.46 D
same,inhibition (suppression) of myopia,[4]; 1 mg/kg in diet,more than 100%
Clc1cccc(Cl)c1N=C1NCCN1 [clonidine],inhibition of experimentally induced myopia,[2],inhibit experimentally induced myopia
C[C@@H]1CN([C@H]2CC[C@](C#N)(c3ccc(F)cc3)CC2)CC[C@]1(C(=O)O)c1ccccc1 [levocabastine hydrochloride],interocular difference in refractive error between lens-treated eyes and control eyes,[4]; diet supplemented with 5 mg/kg,+0.55 ± 2.32 D
CC(Cc1ccc(O)cc1)NCC(O)c1cc(O)cc(O)c1 (stereo not shown) [fenoterol hydrobromide],interocular difference in refractive error between lens-treated eyes and control eyes,[4]; diet supplemented with 1 mg/kg,-0.8 ± 1.80 D
CN1[C@@H]2CC[C@H]1C[C@@H](OC(=O)C(CO)c1ccccc1)C2 (stereo partly shown) [atropine],long-term effects on development of ocular components and emmetropization,[5],long-term adverse effects
same,retardation of the progression of myopia,"progression of myopia [6]; 1% atropine eye drops, 2-year treatment period",approximately 76%
same,side effects,progression of myopia [6]; 1% atropine,"photophobia, reduced accommodation amplitude, and blurred vision"
same,retardation of progression of myopia,progression of myopia [7]; 0.01% atropine,27%
same,retardation of progression of myopia,progression of myopia [7]; 0.025% atropine,43%
same,retardation of progression of myopia,progression of myopia [7]; 0.05% atropine,67%
same,long-term suppression effect,"[8]; 0.01% atropine, 5-year follow up study",approximately 30%
same,drop of the progression rate after cessation of treatment,"[8]; 0.01% atropine, after cessation of treatment",approximately 30%
same,retardation of the progression of myopia,"[8]; 0.01% atropine, children",59%
same,retardation of the progression of myopia,"[8]; 0.1% atropine, children",68%
same,suppression of the progression of myopia,"[8]; 0.5% atropine, children",75%
"CCCCP(=O)(O)C1CCC(N)C1 (stereo not shown) [3-ACPBPA, (3-aminocyclopentanyl) butylphosphinic acid]",suppression of myopia development,myopia development [1],suppress myopia development
[H]/N=C(\NCCC[C@H](N)C(=O)O)SC [S-methyl-L-thiocitrulline hydrochloride],interocular difference in refractive error between lens-treated eyes and control eyes,[4]; diet supplemented with 10 mg/kg,-0.28 ± 2.17 D
same,inhibition (suppression) of myopia,[4]; 10 mg/kg in diet,approximately 97%
"CP(=O)(O)C1=CCNCC1 [TPMPA, (1,2,5,6-tetrahydropyridin-4yl) methylphosphinic acid]",suppression of myopia development,myopia development [1],suppress myopia development
"Cn1cnc2[nH]c(=O)[nH]c(=O)c21 [7-MX, 7-methylxanthine]",suppression of myopia,myopia [9],49%
same,changes in the sclera,sclera,thickening of the sclera and an increase in the diameter of the scleral collagen fibrils
same,suppression of myopia,myopia [10],can suppress myopia in primates
same,effect on myopia progression,[11]; subjects with high rates of progression,no effect
same,suppression of myopia,[11]; subjects with slow progressing myopia,approximately 22%
same,reduction of the extent of induced myopia,induced myopia,approximately 67%
CC(C)OC(=O)CCC/C=C\C[C@@H]1[C@@H](CC[C@@H](O)CCc2ccccc2)[C@H](O)C[C@@H]1O [latanoprost],reduction of progression of myopia,progression of myopia [12],reduce progression of myopia
C[C@@H]1OC(=O)[C@H]2C[C@H]3CCCC[C@@H]3[C@@H](/C=C/[C@H]3CCC[C@H](C)N3C)[C@@H]12 [himbacine],inhibition of the development of experimental myopia,experimental myopia,inhibit the development of experimental myopia
CN1CCN(CC(=O)N2c3ccccc3C(=O)Nc3cccnc32)CC1 [pirenzepine],inhibition of the development of experimental myopia,experimental myopia,inhibit the development of experimental myopia
same,suppression of the progression of myopia,[13]; children,40%
same,side effects,[13]; clinical trials eventually discontinued,serious side effects
COc1ccc2cc3[n+](cc2c1OC)CCc1cc2c(cc1-3)OCO2 [berberine chloride],interocular difference in refractive error between lens-treated eyes and control eyes,[4]; diet supplemented with 20 mg/kg,-5.15 ± 1.22 D
same,inhibition (suppression) of myopia,[4]; 20 mg/kg in diet,approximately 50%
Brc1c(NC2=NCCN2)ccc2nccnc12 [brimonidine],inhibition of experimentally induced myopia,[2],suppressed myopia
same,suppression of myopia,myopia [14],suppressed myopia
